Entries after “also recorded” stand apart in the source; their conditions may differ.
Experiments:
[1] = orientative acute toxicity, single oral administration, mice; conditions: in vivo, mouse, same procedure
Method: The toxicity of the compounds of the invention is negligible, therefore they can be safely used in therapy. Nine hours food deprived mice and rats were treated orally with single administration of increasing doses, then housed and normally fed. The orientative acute toxicity (LD50) was assessed on the seventh day after the treatment and resulted higher than 3000 mg/kg.

[2] = test system: male rats fed hypercholesterolaemic diet; assay: Experiment No. 1: serum lipids in rats fed hypercholesterolaemic diet; format: in vivo, rat (Icem: CER (SPF Caw)); conditions: 4 days
Method: (§1) The introduction of this new substituent in the new bicyclic compounds has therefore unexpectedly strenghtened these activities. The activity of this particular group of compounds of this invention and of the compounds of the above mentioned U.S. Patent and U.K. published Patent Application was evaluated on groups of Icem: CER (SPF Caw) male rats either fed for six days with hypercholesterolaemic diet according to C. E. Day [Schurr P. E., Schultz H. R., Day C. E. (Eds) Atherosclerosis and drug discovery--Plenum Pub. Corp., 217 (1976)] (Experiment No. 1) or fed standard diet [Altromin] (Experiment No. 2). "Altromin" is a trade mark.
(§2) The compounds were suspended in "Methocel" (methyl cellulose, a 0.5% suspension in water) and administered by stomach tube for 4 days.
(§3) Groups of animals were treated with the suspending agent only (control groups).
(§4) The total serum cholesterol was determined with the method of Trinder P. J. [J.Clin.Pathol., 22, 246 (1969)].
The total serum HDL cholesterol was determined according to Demacker P. N. M. [Clin. Chem., 23, 1238, (1977)].
Statistical analysis in experiment No. 1 was performed by the Student's t test for independent samples or by the Cochran's test when the variances were not homogeneous at the F ratio test [Bliss C. I.--Statistics in Biology, Vol. 1, page 213--Mc Graw Hill Book Company, New York, 1967; Cochran W. G., Cox G. M.--Experimental designs--J. Wiley & Sons Inc., New York, II Ed. (1968) page 100].

[3] = test system: collagen-induced platelet aggregation; assay: in vitro inhibition of collagen-induced platelet aggregation in platelet rich plasma; format: cell-based, guinea pig; conditions: for inhibition at 12.5 µg/mL: in vitro concentration 12.50 mcg/ml
Method: (§5) The platelet antiaggregatory activity of the compounds of the invention was evaluated in vitro and in vivo, for example, according to the modified methods of Born [Born G. V. R., Nature 194, 927 (1962)] and Silver [Silver M. J., Science 183, 1085 (1974)].
(§6) The compounds of this invention were found in vitro to have inhibitory activity on platelet aggregation induced by collagen or ADP (adenosine-5'-disphosphate) in platelet rich plasma of guinea pig [Dunkin Hantley Iva: PDH (SPF) Ivanovas GmBH, Germany].

[4] = test system: male rats fed standard diet; assay: Experiment No. 2: serum lipids in rats fed standard Altromin diet; format: in vivo, rat (Icem: CER (SPF Caw)); conditions: 4 days
Method: as §1, §2, §3, §4
The serum triglycerides were determined with the method of Mendex J. [J. Clin. Chem., 21, 768, (1975)].
W.--J. Amer. Stat. Ass., 50, 1096 (1955)].

[5] = test system: arachidonic acid (1.4 mg/kg) induced mortality in rabbits; assay: arachidonic acid induced mortality in rabbits; format: in vivo, rabbit (New Zealand White)
Method: as §5
The compound FCE 22178 was also suspended in Methocel® and administered orally by gavage to rabbits (New Zealand White) at 2 mg/kg one hour before the injection of 1.4 mg/kg of arachidonic acid.

male SHR rats = assay: development of hypertension in SHR rats, mean systemic pressure after seven weeks oral treatment; format: in vivo, rat (SHR)
Method: For example, one of the compound of this invention, i.e. compound FCE 22178, was given orally to nine male SHR rats for seven weeks at the dosage of 9 mg/kg.
The mean systemic pressure was monitored on an eight channels Beckman polygraph via a Statham pressure transducer, connected to a PE 60 catheter, inserted, 24 hours before monitored, into the left carotid artery.

PGI2 synthetase = assay: plasma 6-keto-PGF1α concentration in rats after single oral dose (activity on PGI2 synthetase in vivo); design: species or system rat; conditions: 2 hours
Method: (§7) The activity on TxA2 and PGI2 synthetase has been evaluated in vivo. For example, rats were treated with a single oral dose of compound and killed 2 hours later. TxB2 and 6-keto-PGF1α concentrations, the stable metabolites of TxA2 and PGI2 respectively, were determined on serum and plasma respectively.

TxA2 synthetase = assay: serum TxB2 concentration in rats after single oral dose (activity on TxA2 synthetase in vivo); design: species or system rat; conditions: 2 hours
Method: as §7

[6] = test system: ADP-induced platelet aggregation; assay: in vitro inhibition of ADP-induced platelet aggregation in platelet rich plasma; format: cell-based; conditions: guinea pig platelet rich plasma
Method: as §5, §6

[7] = test system: thromboxane A2 (TXA2) synthetase; conditions: literature / prior filings; cited from earlier work

COc1ccc2c(c1)CCC(Cn1ccnc1)=C2 [1,2-dihydro-3-(1-imidazolylmethyl)-7-methoxy-naphthalene]
LD50 at 168 h [1]: < 200 mg/kg

C1=C(Cn2ccnc2)CCc2ccccc21 [1,2-dihydro-3-(1-imidazolylmethyl)-naphthalene]
LD50 at 168 h [1]: < 200 mg/kg

O=C1c2cc(Cl)ccc2OCC1n1ccnc1 (stereo not shown) [FCE 20204, 3-(1-imidazolyl)-2,3-dihydro-6-chloro-4H-1-benzopyran-4-one, reference compound]
Serum HDL cholesterol, % variation vs. controls ([2]; 25 mg/kg/os): +49 % variation vs. controls
Total serum cholesterol, % variation vs. controls ([2]; 25 mg/kg/os): +7 % variation vs. controls
inhibition at 12.5 µg/mL ([3]; Cavia porcellus, Platelet): 0%

COc1ccc2c(c1)C(=O)C(n1ccnc1)CC2 (stereo not shown) [FCE 21848, 2-(1-imidazolyl)-3,4-dihydro-7-methoxy-1(2H)-naphthalenone, reference compound]
inhibition at 12.5 µg/mL ([3]; Cavia porcellus, Platelet): 0%
Serum triglycerides, % variation vs. controls ([4]; 50.00 mg/kg/os): inactive
Total serum cholesterol, % variation vs. controls ([4]; 50.00 mg/kg/os): inactive

O=C(O)c1ccc2c(c1)C=C(n1ccnc1)CC2 [FCE 22178, 1,2-dihydro-3-(1-imidazolyl)-6-carboxy-naphthalene]
effect on arachidonic acid induced mortality ([5]; 2 mg/kg orally): greatly decreases
Mortality ([5]; 2 mg/kg/os, one hour before arachidonic acid 1.4 mg/kg, Methocel control 9/9): 3/9
development of hypertension (male SHR rats; 9 mg/kg orally for seven weeks): decreased the development of hypertension
Mean systemic pressure, Treated (male SHR rats; 9 mg/kg orally, 7 weeks, controls 177 ± 5.06): 154.8 ± 14.1 mm Hg ± E.S.
change of plasma 6-keto-PGF1α concentration (PGI2 synthetase; 100 mg/kg): doubled
increase of plasma 6-keto-PGF1α concentration (PGI2 synthetase; dosed up to 9 mg/kg): up to 30%
reduction of serum TxB2 concentration (TxA2 synthetase; 100 mg/kg): 90%
reduction of serum TxB2 concentration (TxA2 synthetase; dosed up to 9 mg/kg): up to 70%

COc1ccc2c(c1)C=C(n1ccnc1)CC2 [FCE 22466, 1,2-dihydro-3-(1-imidazolyl)-6-methoxy-naphthalene]
inhibition of collagen-induced platelet aggregation ([3]; 25 mcg/ml): totally inhibits collagen-induced platelet aggregation in three out of four samples
inhibition at 12.33 µg/mL ([3]; Cavia porcellus, Platelet, in vitro concentration 12.33 mcg/ml): 50%
activity on collagen-induced platelet aggregation ([3]; in vitro, guinea pig platelet rich plasma): active
activity on ADP-induced platelet aggregation [6]: active

CC(C)(Oc1ccc2c(c1)C=C(n1ccnc1)CC2)C(=O)O [FCE 22473, 1,2-dihydro-3-(1-imidazolyl)-6-(2-carboxy-isopropoxy)-naphthalene]
Serum HDL cholesterol, % variation vs. controls ([2]; 27 mg/kg/os): +77 % variation vs. controls
Total serum cholesterol, % variation vs. controls ([2]; 27 mg/kg/os): -73 % variation vs. controls
Serum triglycerides, % variation vs. controls ([4]; 16.67 mg/kg/os): -57 % variation vs. controls
Total serum cholesterol, % variation vs. controls ([4]; 16.67 mg/kg/os): -32 % variation vs. controls

c1c[nH]cn1 [imidazole]
inhibition of TxA2 synthetase [7]: able to inhibit; also recorded: only a very weak TXA2 inhibiting effect

Reference: US4510149A, “N-Imidazolyl derivatives containing naphthalene or indene nucleus” (Farmitalia Carlo Erba S.p.A., priority 1982, dated 1985)
